Test results as given in patent US20240059688A1, “CONOLIDINE ANALOGUES AS SELECTIVE ACKR3 MODULATORS FOR THE TREATMENT OF CANCER” (Luxembourg Institute of Health (LIH), priority 2020, published 2024).

Assays:
[1] = target: T1, human CXCR4 (Homo sapiens, UniProt P61073); test: CXCR4 β-arrestin recruitment assay (PathHunter); format: cell-based; settings: human CXCR4-C2Cl2 cells, relative to CXCL-12
T1 construct: host or cells: C2C12
Procedure: (§1) Compounds were evaluated for agonist activity using a β-arrestin recruitment assay based on β-galactosidase complementation (PathHunter, DiscoverX). Stable human ACKR3-β-arrestin-2-CHO cells (DiscoverX) were plated into 96-well white-walled assay plates at 15,000 cells/well in Cell Plating Reagent 2 (DiscoveRx) and incubated at 37° C., 5% CO2 overnight. The next day, test compounds were prepared at 10× concentration in DPBS/1% DMSO and 10 μL was added to the cells. CXCL-12 was included as a positive agonist control. Following a 1.5 hr incubation at 37° C., 55 μL of detection reagent (prepared according to the manufacturer's specifications) was added to each well. The plate was incubated at room temperature for 1 hr, after which luminescence was measured at 1 sec/well using an EnSpire multimode plate reader (PerkinElmer). Relative luminescence units (RLU) were plotted against the log of compound concentration and data were fit to a three-parameter logistic curve to generate EC50 values (GraphPad Prism). EC50 and % Emax values are reported as means±SEM and are the result of at least two independent experiments performed in duplicate. The CXCR4 assay was run similarly except that human CXCR4-C2Cl2 cells (DiscoverX) were plated at 20,000 cells/well in Cell Plating Reagent 9. The next day, the media was removed and cells were incubated with Cell Plating Reagent 4 for 3 hrs, after which the assay was conducted as described above.

[2] = target: ACKR3 (Homo sapiens, UniProt P25106); test: ACKR3 β-arrestin recruitment assay (PathHunter, β-galactosidase complementation); format: cell-based; settings: for EC50: stable human ACKR3-β-arrestin-2-CHO cells, mean ± SEM, at least two independent experiments in duplicate; for Emax: read-out: ACKR3 β-arrestin % CXCL12 Emax ± SEM
ACKR3, sequence (P25106 whole entry): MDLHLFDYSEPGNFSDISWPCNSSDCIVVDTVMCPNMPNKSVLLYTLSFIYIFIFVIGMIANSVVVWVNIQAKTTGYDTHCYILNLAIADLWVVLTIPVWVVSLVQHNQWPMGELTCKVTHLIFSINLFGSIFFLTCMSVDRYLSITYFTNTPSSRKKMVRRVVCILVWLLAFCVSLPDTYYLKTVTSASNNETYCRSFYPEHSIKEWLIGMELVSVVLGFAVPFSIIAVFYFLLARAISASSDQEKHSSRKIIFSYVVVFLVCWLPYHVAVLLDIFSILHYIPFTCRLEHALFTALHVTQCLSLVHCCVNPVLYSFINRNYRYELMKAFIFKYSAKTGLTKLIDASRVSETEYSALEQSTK
Procedure: as §1

T1 sequence (P61073 whole entry): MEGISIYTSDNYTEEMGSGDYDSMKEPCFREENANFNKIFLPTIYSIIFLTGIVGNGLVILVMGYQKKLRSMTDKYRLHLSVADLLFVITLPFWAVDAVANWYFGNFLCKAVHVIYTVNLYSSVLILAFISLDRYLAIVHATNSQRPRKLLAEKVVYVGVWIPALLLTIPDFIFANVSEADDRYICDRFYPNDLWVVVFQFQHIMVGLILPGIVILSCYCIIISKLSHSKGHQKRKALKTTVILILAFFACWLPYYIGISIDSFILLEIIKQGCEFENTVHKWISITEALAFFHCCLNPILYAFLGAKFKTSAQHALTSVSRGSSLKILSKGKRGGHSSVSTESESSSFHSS

SMILES	CXCR4 β-arrestin % CXCL-12Emax (n = 2) [1]	EC50 [2]	Emax [2]
NC1CN(C(=O)c2cc3ccccc3[nH]2)C1 [WW-31, 1-(1H-indole-2-ylcarbonyl)azetidin-3-amine]	7%	> 10 µM	–
CCCCCNC1CN(C(=O)c2cc3ccccc3[nH]2)C1 [WW-32, 1-(1H-indole-2-ylcarbonyl)-N-pentylazetidin-3-amine]	9%	> 10 µM	–
CCCCCN1CC[C@H](NC(=O)c2cc3ccc(-c4ccc(F)cc4)cc3[nH]2)C1 [WW-44, 6-(4-Fluorophenyl)-N-[(3S)-1-pentylpyrrolidin-3-yl]-1H-indole-2-carboxamide]	26%	4.14 ± 0.11 µM	110 ± 7%
CCCCCN1CCN(C(=O)c2cc3ccccc3[nH]2)C2(CC2)C1 [WW-23, 2-[(7-pentyl-4,7-diazaspiro[2.5]oct-4-yl)carbonyl]-1H-indole]	11%	3.04 ± 0.13 µM	156 ± 11%
CCOC(=O)C(c1[nH]c2ccccc2c1C=O)C1CCN(S(=O)(=O)c2ccc(C)cc2)C/C1=N\O[Si](C)(C)C(C)(C)C (stereo not drawn) [WW-64]	16%	> 10 µM	–
O=C(c1cc2ccccc2[nH]1)N1CCNCC12CC2 [WW-22, 2-(4,7-diazaspiro[2.5]oct-4-ylcarbonyl)-1H-indole]	4%	> 10 µM	–
CCCCCN1CC[C@H](NC(=O)c2cc3cccc(-c4ccc(F)cc4)c3[nH]2)C1 [WW-46, 7-(4-Fluorophenyl)-N-[(3S)-1-pentylpyrrolidin-3-yl]-1H-indole-2-carboxamide]	7%	0.504 ± 0.062 µM	119 ± 8%
CCCCCN1CC[C@H](NC(=O)c2cc3cc(OC)c(OC)c(OC)c3[nH]2)C1 [WW-43, 5,6,7-Trimethoxy-N-[(3S)-1-pentylpyrrolidin-3-yl]-1H-indole-2-carboxamide]	10%	> 10 µM	–
CCOC(=O)C(c1[nH]c2ccccc2c1C=O)C1CCN(S(=O)(=O)c2ccc(C)cc2)C/C1=N\O (stereo not drawn) [WW-65, ethyl (3-formyl-1H-indol-2-yl){(3Z)-3-(hydroxyamino)-1-[(4-methylphenyl)sulfonyl]piperidin-4-yl}acetate]	11%	> 10 µM	–
CC(C)(C)OC(=O)N1CC[C@H](NC(=O)c2cc3ccccc3[nH]2)C1 [WW-26, Tert-butyl (3S)-3-[(1H-indol-2-ylcarbonyl)amino]pyrrolidine-1-carboxylate]	9%	> 10 µM	–
CCCCCN1CCN(C(=O)c2cc3ccccc3n2CCCCC)C2(CC2)C1 [WW-24, 1-pentyl-2-[(7-pentyl-4,7-diazaspiro[2.5]oct-4-yl)carbonyl]-1H-indole]	5%	6.05 ± 0.53 µM	154 ± 17%
CC(C)(C)OC(=O)N1CCCN(C(=O)c2cc3ccccc3[nH]2)CC1 [WW-27, tert-butyl 4-(1H-indol-2-ylcarbonyl)-1,4-diazepane-1-carboxylate]	4%	> 10 µM	–
CCCCCN1CCC(C)(C(=O)c2cc3ccccc3[nH]2)CC1 [WW-57, 1H-Indole-2-yl(4-methyl-1-pentylpiperidin-4-yl)methanone]	5%	6.45 ± 0.72 µM	96 ± 4%
C/C=C1/CN(CC2CCCCC2)CC[C@H]1C(=O)c1cc2ccccc2[nH]1 [WW-68, [(3E,4R)-1-(cyclohexylmethyl)-3-ethylidenepiperidin-4-yl](1H-indol-2-yl)methanone]	8%	3.61 ± 0.39 µM	136 ± 3%

The next lines start with the values.

CXCR4 β-arrestin % CXCL-12Emax (n = 2) [1]	EC50 [2]	Emax [2]	SMILES
4%	> 10 µM	–	C/C=C1/CN(CCCCCC(=O)OC)CC[C@H]1C(=O)c1cc2ccccc2[nH]1 [WW-71, Methyl 6-[(3E,4R)-3-ethylidene-4-(1H-indol-2-ylcarbonyl)piperidin-1-yl]hexanoate]
11%	> 10 µM	–	C/C=C1/CN(CCOCCN)CC[C@H]1C(=O)c1cc2ccccc2[nH]1 [WW-60, (3E,4R)-(3-ethylidene-1-(2-ethoxy-(2-aminoethyl))piperidin-4-yl)(1H-indol-2-yl)methanone]
9%	> 10 µM	–	C/C=C1/CN(CCCCC)CC[C@H]1C(=O)c1cc2cc(-c3ccc(F)cc3)ccc2[nH]1 [WW-73, [(3E,4R)-3-ethylidene-1-pentylpiperidin-4-yl][5-(4-fluorophenyl)-1H-indol-2-yl]methanone]
11%	> 10 µM	–	CCCCCN1CCN(C(=O)c2cc3ccccc3[nH]2)CC1 [WW-28, 2-[(4-pentylpiperazin-1-yl)carbonyl]-1H-indole]
11%	1.68 ± 0.3 µM	79 ± 6%	C/C=C1/CN(Cc2ccc(OC)cc2)CC[C@H]1C(O)c1cc2cc(-c3ccc(F)cc3)ccc2n1S(=O)(=O)c1ccccc1 (stereo partly drawn) [WW-69]
3%	0.177 ± 0.01 µM	172 ± 6%	C/C=C1/CN(CCCCC)CC[C@H]1C(O)c1cc2ccccc2n1S(=O)(=O)c1ccccc1 (stereo partly drawn) [WW-74]
15%	1.92 ± 0.056 µM	145 ± 4%	CCCCCN1CC[C@H](NC(=O)c2cc3ccccc3[nH]2)C1 [WW-29, N-[(3S)-1-pentylpyrrolidin-3-yl]-1H-indole-2-carboxamide]
3%	> 10 µM	–	C/C=C1/CN(CCCCN)CC[C@H]1C(=O)c1cc2ccccc2[nH]1 [WW-58, (3E,4R)-(3-ethylidene-1-(4-aminobutyl)piperidin-4-yl)(1H-indol-2-yl)methanone]
4%	> 10 µM	–	CCCCCN1CCN(C(=O)c2cc3ccccc3[nH]2)C(CC)C1 (stereo not drawn) [WW-25, 2-[(2-ethyl-4-pentylpiperazin-1-yl)carbonyl]-1H-indole]
−2%	> 10 µM	–	C/C=C1/CN(Cc2ccc(OC)cc2)CC[C@H]1C(O)c1cc2cc(C#N)ccc2n1S(=O)(=O)c1ccccc1 (stereo partly drawn) [WW-70, 2-{[(3E, 4R)-(3-ethylidene-1-(4-methoxybenzyl)piperidin-4-yl)](hydroxy)methyl}-1-(phenylsulfonyl)-1H-indole-5-carbonitrile]
4%	3.78 ± 0.98 µM	145 ± 16%	C/C=C1/CN(CCCCOc2ccccc2)CC[C@H]1C(=O)c1cc2ccccc2[nH]1 [WW-72, (3E,4R)-(3-ethylidene-1-(4-phenoxybutyl)piperidin-4-yl)(1H-indol-2-yl)methanone]
5%	3.04 ± 0.32 µM	137 ± 3%	C/C=C1/CN(CCCCCC)CC[C@H]1C(=O)c1cc2ccccc2[nH]1 [WW-62, [(3E,4R)-3-ethylidene-1-hexylpiperidin-4-yl](1H-indol-2-yl)methanone]
15%	1.96 ± 0.027 µM	129 ± 4%	C/C=C1/CN(CCCCC)CC[C@H]1C(=O)c1cc2cc(Cl)ccc2[nH]1 [WW-54, (5-chloro-1H-indol-2-yl)[(3E,4R)-3-ethylidene-1-pentylpiperidin-4-yl]methanone]
10%	5 ± 0.6 µM	90 ± 1%	C/C=C1/CN(CCCCC)CC[C@H]1C(=O)c1cc2ccc(F)cc2[nH]1 [WW-55, [(3E,4R)-3-ethylidene-1-pentylpiperidin-4-yl](6-fluoro-1H-indol-2-yl)methanone]
